Source: US20070010671A1, “Novel quinazoline derivatives and methods of treatment related to the use thereof” (priority 2003, published 2007)
Counter-ions that a name gives are not always drawn.

What follows are compounds tested against MCH receptor (Homo sapiens, UniProt Q99705) (assay: High throughput functional screening FLIPR/FDSS6000: inhibition of MCH-evoked intracellular Ca2+ changes). Details: antagonist activity, 50 nM of MCH, FLIPR or FDSS; read-out: IC50.
Assay type: cell-based
Method in brief: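 Fluo4 fluorescence (Ex 488 nm, Em 530 nm) tracked MCH-evoked [Ca2+]i transients over 290 s by FLIPR or FDSS. Cells carried a constitutively active, non-endogenous receptor version. Compounds were added 3 min before a 50 nM MCH challenge.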

SMILES | IC50 [nM]
COc1ccc(NC(=O)N[C@H]2CC[C@@H](Nc3nc(N(C)C)c4ccccc4n3)CC2)cc1OC [Example 1, 1-(3,4-Dimethoxy)-phenyl)-3-[cis-4-(4-dimethylamino-quinazolin-2-ylamino)-cyclohexyl-urea hydrochloride] | 13

Same assay, conditions: class by percent of control at 10^-7 M or IC50

SMILES | class
CCc1cccc(CC)c1NC(=O)NC[C@H]1CC[C@@H](Nc2nc(N(C)C)c3ccccc3n2)CC1 [compound 484, N-(2,6-diethylphenyl)-N′-[(cis-4-{[4-(dimethylamino)quinazolin-2-yl]amino}cyclohexyl)methyl]urea] | 1 (Class 1: The value of percent of control at 10^−7 M was less than 40% or the value of IC50 was less than 50 nM.)
CN(C)c1nc(N[C@H]2CC[C@@H](NC(=S)Nc3ccc(Cl)cc3C(F)(F)F)CC2)nc2ccccc12 [compound 314, N-[4-chloro-2-(trifluoromethyl)phenyl]-N′-(cis-4-{[4-(dimethylamino)quinazolin-2-yl]amino}cyclohexyl)thiourea] | 1 (Class 1: The value of percent of control at 10^−7 M was less than 40% or the value of IC50 was less than 50 nM.)
Cc1cc(C)c(NC(=O)NC[C@H]2CC[C@@H](Nc3nc(N(C)C)c4ccccc4n3)CC2)c(C)c1 [compound 458, N-[(cis-4-{[4-(dimethylamino)quinazolin-2-yl]amino}cyclohexyl)methyl]-N′-mesitylurea] | 1 (Class 1: The value of percent of control at 10^−7 M was less than 40% or the value of IC50 was less than 50 nM.)
Cc1cc(Cl)ccc1NC(=O)NC[C@H]1CC[C@@H](Nc2nc(N(C)C)c3ccccc3n2)CC1 [compound 546] | 2 (Class 2: The value of percent of control at 10^−7 M was from 40% to 60% or the value of IC50 was from 50 nM to 200 nM.)
CN(C)c1nc(N[C@H]2CC[C@@H](NC(=S)Nc3ccc(NC(=O)OC(C)(C)C)cc3)CC2)nc2ccccc12 [compound 240] | 3 (Class 3: The value of percent of control at 10^−7 M was more than 60% or the value of IC50 was more than 200 nM.)
CN(C)c1nc(N[C@H]2CC[C@@H](CNC(=S)Nc3ccc(Br)c(Cl)c3)CC2)nc2ccccc12 [compound 735] | 3 (Class 3: The value of percent of control at 10^−7 M was more than 60% or the value of IC50 was more than 200 nM.)
CN(C)c1nc(N[C@H]2CC[C@@H](NC(=S)Nc3ccccc3OC(F)(F)F)CC2)nc2ccccc12 [compound 207, N-(cis-4-{[4-(dimethylamino)quinazolin-2-yl]amino}cyclohexyl)-N′-[2-(trifluoromethoxy)phenyl]thiourea] | 2 (Class 2: The value of percent of control at 10^−7 M was from 40% to 60% or the value of IC50 was from 50 nM to 200 nM.)
CN(C)c1nc(N[C@H]2CC[C@@H](CNC(=O)Nc3ccc4c(c3)OCCO4)CC2)nc2ccccc12 [compound 758] | 3 (Class 3: The value of percent of control at 10^−7 M was more than 60% or the value of IC50 was more than 200 nM.)
CN(C)c1nc(N[C@H]2CC[C@@H](NC(=S)Nc3c(F)cccc3F)CC2)nc2ccccc12 [compound 213] | 3 (Class 3: The value of percent of control at 10^−7 M was more than 60% or the value of IC50 was more than 200 nM.)
CCOC(=O)CNC(=O)NC[C@H]1CC[C@@H](Nc2nc(N(C)C)c3ccccc3n2)CC1 [compound 429] | 3 (Class 3: The value of percent of control at 10^−7 M was more than 60% or the value of IC50 was more than 200 nM.)
CC(NC(=O)NC[C@H]1CC[C@@H](Nc2nc(N(C)C)c3ccccc3n2)CC1)c1ccc(Br)cc1 (relative stereo) [compound 575] | 3 (Class 3: The value of percent of control at 10^−7 M was more than 60% or the value of IC50 was more than 200 nM.)
CN(C)c1nc(N[C@H]2CC[C@@H](CNC(=S)Nc3c(F)cccc3F)CC2)nc2ccccc12 [compound 637] | 3 (Class 3: The value of percent of control at 10^−7 M was more than 60% or the value of IC50 was more than 200 nM.)
CN(C)c1nc(N[C@H]2CC[C@@H](CNC(=S)Nc3cccc(F)c3)CC2)nc2ccccc12 [compound 650] | 3 (Class 3: The value of percent of control at 10^−7 M was more than 60% or the value of IC50 was more than 200 nM.)
COc1ccc(CNC(=O)NC[C@H]2CC[C@@H](Nc3nc(N(C)C)c4ccccc4n3)CC2)cc1 [compound 449] | 3 (Class 3: The value of percent of control at 10^−7 M was more than 60% or the value of IC50 was more than 200 nM.)
CN(C)c1nc(N[C@H]2CC[C@@H](CNC(=S)NCc3ccco3)CC2)nc2ccccc12 [compound 598] | 3 (Class 3: The value of percent of control at 10^−7 M was more than 60% or the value of IC50 was more than 200 nM.)
CN(C)c1nc(N[C@H]2CC[C@@H](NC(=S)Nc3ccc(Br)cc3F)CC2)nc2ccccc12 [compound 234] | 3 (Class 3: The value of percent of control at 10^−7 M was more than 60% or the value of IC50 was more than 200 nM.)
CC(C)c1ccc(NC(=O)NC[C@H]2CC[C@@H](Nc3nc(N(C)C)c4ccccc4n3)CC2)cc1 [compound 440] | 3 (Class 3: The value of percent of control at 10^−7 M was more than 60% or the value of IC50 was more than 200 nM.)
C[C@@H](NC(=S)NC[C@H]1CC[C@@H](Nc2nc(N(C)C)c3ccccc3n2)CC1)c1ccccc1 [compound 749] | 3 (Class 3: The value of percent of control at 10^−7 M was more than 60% or the value of IC50 was more than 200 nM.)
COc1cc(NC(=S)NC[C@H]2CC[C@@H](Nc3nc(N(C)C)c4ccccc4n3)CC2)c(OC)cc1Cl [compound 794] | 3 (Class 3: The value of percent of control at 10^−7 M was more than 60% or the value of IC50 was more than 200 nM.)

Same assay, conditions: class by percent of control at 10^-7 M or by IC50; read-out: class

IC50 [nM] | SMILES
> 200 | CN(C)c1nc(N[C@H]2CC[C@@H](NC(=O)Nc3cc([N+](=O)[O-])ccc3F)CC2)nc2ccccc12 [compound 99]
> 200 | COCCOC(=O)NC[C@H]1CC[C@@H](Nc2nc(N(C)C)c3ccccc3n2)CC1 [compound 872]
< 50 | CN(C)c1nc(N[C@H]2CC[C@@H](NC(=O)Nc3ccccc3I)CC2)nc2ccccc12 [compound 101, N-(cis-4-{[4-(dimethylamino)quinazolin-2-yl]amino}cyclohexyl)-N′-(2-iodophenyl)urea]
< 50 | CN(C)c1nc(N[C@H]2CC[C@@H](NC(=O)NCc3ccc(Cl)cc3Cl)CC2)nc2ccccc12 [compound 78, N-(2,4-dichlorobenzyl)-N′-(cis-4-{[4-(dimethylamino)quinazolin-2-yl]amino}cyclohexyl)urea]
< 50 | C=C(C)c1cccc(C(C)(C)NC(=O)N[C@H]2CC[C@@H](Nc3nc(N(C)C)c4ccccc4n3)CC2)c1 [compound 40, N-(cis-4-{[4-(dimethylamino)quinazolin-2-yl]amino}cyclohexyl)-N′-[1-(3-isopropenylphenyl)-1-methylethyl]urea]
> 200 | CN(C)c1nc(N[C@H]2CC[C@@H](NC(=O)Nc3cc(C(F)(F)F)cc(C(F)(F)F)c3)CC2)nc2ccccc12 [compound 8]
< 50 | CN(C)c1nc(N[C@H]2CC[C@@H](NC(=O)Nc3ccc(Br)cc3Br)CC2)nc2ccccc12 [compound 77, N-(2,4-dibromophenyl)-N′-(cis-4-{[4-(dimethylamino)quinazolin-2-yl]amino}cyclohexyl)urea]

SMILES | IC50 [nM]
CN(C)c1nc(N[C@H]2CC[C@@H](CNC(=O)Oc3ccccc3)CC2)nc2ccccc12 [compound 879] | > 200

Same assay, conditions: class by percent of control at 10^−7 M or by IC50; read-out: class

IC50 [nM] | SMILES
> 200 | CN(C)c1nc(N[C@H]2CC[C@@H](NC(=O)c3ccc(Oc4cc(F)cc(F)c4)nc3)CC2)nc2ccccc12 [Example 1063, 6-(3,5-difluorophenoxy)-N-(cis-4-{[4-(dimethylamino)quinazolin-2-yl]amino}cyclohexyl)nicotinamide]
50 to 200 | COc1ccc(C(O)C(=O)NC[C@H]2CC[C@@H](Nc3nc(N(C)C)c4ccccc4n3)CC2)cc1 (relative stereo) [Example 1096, N-[(cis-4-{[4-(dimethylamino)quinazolin-2-yl]amino}-cyclohexyl)-methyl]-2-hydroxy-2-(4-methoxyphenyl)acetamide]
> 200 | CN(C)c1nc(N[C@H]2CC[C@@H](CNC(=O)C(O)c3ccc(Br)cc3)CC2)nc2ccccc12 (relative stereo) [Example 1098, 2-(4-bromophenyl)-N-[(cis-4-{[4-(dimethylamino)quinazolin-2-yl]amino}cyclohexyl)methyl]-2-hydroxyacetamide]
< 50 | COc1ccc(C(NC(=O)[C@H]2CC[C@@H](Nc3nc(N(C)C)c4ccccc4n3)CC2)c2ccc(OC)cc2)cc1 [Example 1192, cis-N-[bis(4-methoxyphenyl)methyl]-4-{[4-(dimethylamino)quinazolin-2-yl]amino}cyclohexanecarboxamide]
< 50 | CN(C)c1nc(N[C@H]2CC[C@@H](C(=O)NCc3ccc(F)cc3C(F)(F)F)CC2)nc2ccccc12 [Example 1174, cis-4-{[4-(dimethylamino)quinazolin-2-yl]amino}-N-[4-fluoro-2-(trifluoromethyl)benzyl]cyclohexanecarboxamide]
50 to 200 | CN(C)c1nc(N[C@H]2CC[C@@H](NC(=O)COc3ccc(Cl)cc3Cl)CC2)nc2ccccc12 [Example 1083, 2-(2,4-dichlorophenoxy)-N-(cis-4-{[4-(dimethylamino)quinazolin-2-yl]amino}cyclohexyl)acetamide]
< 50 | CN(C)c1nc(N[C@H]2CC[C@@H](NC(=O)Nc3cccc(OC(F)(F)F)c3)CC2)nc2ccccc12 [Example 1009, N-(cis-4-{[4-(dimethylamino)quinazolin-2-yl]amino}cyclohexyl)-N′-[3-(trifluoromethoxy)phenyl]urea]
> 200 | CN(C)c1nc(N[C@H]2CC[C@@H](CNC(=O)c3ccc(C(F)(F)F)cc3F)C2)nc2ccccc12 [Example 1125, N-[((1R,3S)-3-{[4-(dimethylamino)quinazolin-2-yl]amino}-cyclopentyl)methyl]-2-fluoro-4-(trifluoromethyl)benzamide]
